Patent US20100256148A1, “USE OF CFMS INHIBITOR FOR TREATING OR PREVENTING BONE CANCER AND THE BONE LOSS AND BONE PAIN ASSOCIATED WITH BONE CANCER” (priority 2007, published 2010)
Where a name gives a salt, the structure may show the parent alone. Read-outs that look alike come from different tables or passages of the source. Marks after values point to notes of the source that are not given here.

Key:
[1] = tested on: NCTC 2472 osteolytic sarcoma cells; test: 2472 sarcoma model: pain-related behaviors; format: in vivo, mouse
Description: (§1) 2472 sarcoma model of secondary bone tumor pain and osteolysis. Experiments were performed on adult male C3H/HeJ mice (Jackson Laboratories, Bar Harbor, Me., USA), approximately 7-8 weeks old, weighing 25-30 g at the time of tumor cell injection. An arthrotomy was performed following induction of general anesthesia with ketamine/xylazine (2:1 ratio; intramuscular (i.m.)). A needle was inserted into the intramedullary canal to create a pathway for the sarcoma cells. A depression was then made using a pneumatic dental high speed handpiece. Mice were injected with Hanks buffered saline (HBSS) (20 ul, Sigma, St. Louis, Mo., USA) or HBSS containing the 2472 sarcoma line (ATCC, Rockville, Md., USA). The injection site is sealed with a dental amalgam plug to confine the cells within the intramedullary canal and followed by irrigation with sterile water (hypotonic solution). Finally, incision closure is achieved with a wound clip. Clips are removed at day 5 as not to interfere with behavioral testing.
A variety of behavioral measurements were used to assess the extent of bone cancer pain.
Spontaneous nocifensive behaviors: The number of spontaneous flinches and guarding, representative of nociceptive behavior, were recorded during a 2-minute observation period. Flinches are defined as number of times the animal raises its hindpaw and guarding as the amount of time animals hold the hindpaw aloft while stationary.
Palpation-induced nocifensive behaviors: Mechanical allodynia at the knee joint was evaluated by normally non-noxious palpation of the distal femur every second for 2 minutes. Following the 2-minute palpation, the mice were placed in the observation box and their palpation-induced guarding and flinching behavior was measured for an additional 2 minutes, as discussed above.

[2] = tested on: NCTC 2472 osteolytic sarcoma cells; test: 2472 sarcoma model of secondary bone tumor: osteolysis and histology; format: in vivo, mouse; conditions: for Bone erosion score (visual, scale 0-5, microradiographs): Day 15
Description: as §1
The extent of tumor-induced bone reorganization (osteolysis) was radiologically assessed using Faxitron analysis (Specimen Radiography System Model MX-20, Faxitron X-ray Corporation, Wheeling, Ill., and Kodak film Min-R 2000, Rochester, N.Y.). Radiographs of tumor-bearing femora were scored on a 0 to 5 scale: (0) normal bone with no signs of destruction; (1) small pits of bone destruction (1-3 in number); (2) increased pitted appearance (3-6) and loss of medullary bone; (3) loss of medullary bone and erosion of cortical bone; (4) full thickness unicortical bone loss; (5) full thickness bicortical bone loss and displaced skeletal fracture.

H460, MDA-MB-231, A375 = test: Growth factor-independent proliferation of adenocarcinoma cells; format: cell-based, human
[3] = tested on: NCI-H460 human lung carcinoma cells; conditions: for final tumor weights reduced by: at study termination
[4] = tested on: MRMT-1 rat mammary gland carcinoma cells; test: Rat MRMT-1 bone metastasis model (osteolysis, osteoclasts, tumor); format: in vivo; design: key to Microradiograph score (five point visual score): 0 = no destruction to 5 = bi-cortical bone loss/fracture; key to Trabecular bone vol score (three point visual score): 0 = none, 1 = 1-10%, 2 = >10-<40% (normal), 3 = >40% area; key to Tumor vol score (three point visual score): 0 = none, 1 = small, 2 = moderate, 3 = large tumor; conditions: for Microradiograph score (five point visual score) / Osteoclast Counts (TRAP positive cells, mean of three 200x fields) / Tumor vol score (three point visual score) / Trabecular bone vol score (three point visual score): Day 3 to Day 17, mean ± SEM
Description: Rat MRMT-1 bone metastasis model. Inoculation of rat mammary MRMT-1 adenocarcinoma cells into tibiae has been described as a bone metastasis model (Medhurst S J, et al., Pain 2002; 96:129-40. An adaptation of the model (Roudier M P, et al., Clin Exp Metastasis 2006, 23:167-75) was performed by MDS Pharma Services (Bothel, Wash.). Female Sprague-Dawley rats (Harlan Sprague Dawley, Inc., Indianapolis, Ind.) approximately 125-150 grams were acclimated one week. The animals were anesthetized with ketamine/xylazine, and the right leg area was shaved and scrubbed with chlorhexadine and 70% ethanol (SOP-SUR026). A 1-cm rostral-caudal incision was made in the skin over the top half of the tibia. Blunt-dissection exposed the proximal tibia, and a Hamilton syringe guided by a 23-gauge needle was used to inject 3 μl of saline (sham) or saline containing 3×10^4 MRMT-1 cells into the medullary cavity of the right proximal tibia of each rat. The injection site was closed with bone wax. The wound was closed with surgical staples. […] To serve as a control, a fourth group was dosed QOD sc with 0.03 mg/kg zoledronate in saline. Eight rats were dosed per group. Rats were sacrificed on Day 17. Right tibiae were excised, together with surrounding tumor tissue, and microradiographs prepared using an MX-20 x-ray system (Faxitron X-ray Corporation, Wheeling, Ill.). Microradiographs were scored for tumor-induced osteolysis as follows: 0, no signs of destruction; 1, one to three small radiolucent lesions; 2, three to six lesions and loss of medullary bone; 3, loss of medullary bone and erosion of cortical bone; 4, full thickness uni-cortical bone loss; 5, full thickness bi-cortical bone loss and/or displaced skeletal fracture. The radiographs were used to select representative bones from each group for microCT imaging. All tibia were fixed in 10% neutral buffered formalin for two days, decalcified and sectioned for histopathological evaluation. TRAP staining was performed as described previously in Liu, C., et al., 1987. […] For each tibia, the numbers of tumor-associated TRAP^+ osteoclasts were counted in the three 200×-fields with highest osteoclast frequency. A semi-quantitative three-point scoring method was used to compare treatment groups with regards to trabecular bone volume (3, >40 area; 2, >10%<40% area (normal); 1, 1-10% area; 0, none) and tumor volume (3, large; 2, moderate; 1, small; 0, none).

MRMT-1 cells = test: Tactile (mechanical) allodynia in the MRMT-1 model; format: in vivo, rat
Description: Rat MRMT-1 bone metastasis model. Inoculation of rat mammary MRMT-1 adenocarcinoma cells into tibiae has been described as a bone metastasis model (Medhurst S J, et al., Pain 2002; 96:129-40. An adaptation of the model (Roudier M P, et al., Clin Exp Metastasis 2006, 23:167-75) was performed by MDS Pharma Services (Bothel, Wash.). Female Sprague-Dawley rats (Harlan Sprague Dawley, Inc., Indianapolis, Ind.) approximately 125-150 grams were acclimated one week. The animals were anesthetized with ketamine/xylazine, and the right leg area was shaved and scrubbed with chlorhexadine and 70% ethanol (SOP-SUR026). A 1-cm rostral-caudal incision was made in the skin over the top half of the tibia. […] Microradiographs were scored for tumor-induced osteolysis as follows: 0, no signs of destruction; 1, one to three small radiolucent lesions; 2, three to six lesions and loss of medullary bone; 3, loss of medullary bone and erosion of cortical bone; 4, full thickness uni-cortical bone loss; 5, full thickness bi-cortical bone loss and/or displaced skeletal fracture. […] For each tibia, the numbers of tumor-associated TRAP^+ osteoclasts were counted in the three 200×-fields with highest osteoclast frequency. […]
Pain Behavioral Assessments. […] The behavioral test for tactile allodynia, measured prior to surgery, was used for randomization of animals to the treatment groups. […]

[5] = 60 mg/kg oral twice daily, tumor mice
[6] = 120 mg/kg oral twice daily, sham mice
[7] = 120 mg/kg oral twice daily, tumor mice
[8] = 25 mg/kg oral twice daily, mean ± SEM
[9] = 50 mg/kg oral twice daily, mean ± SEM
[10] = 100 mg/kg oral twice daily, mean ± SEM
[11] = JNJ-141 20 mpk oral twice daily
[12] = JNJ-141 60 mpk oral twice daily

CN(C)CC(=O)N1CCC(c2ccc(NC(=O)c3nc(C#N)c[nH]3)c(C3=CCCCC3)c2)CC1 [JNJ-141, 4-cyano-N-[2-(1-cyclohexen-1-yl)-4-[1-[(dimethylamino)acetyl]-4-piperidinyl]phenyl]-1H-imidazole-2-carboxamide monohydrochloride]
PIF Day 7 (palpation-induced flinches over 2 minutes) [1, 5]: 10.3
PIF Day 9 (palpation-induced flinches over 2 minutes) [1, 5]: 14.3
PIF Day 11 (palpation-induced flinches over 2 minutes) [1, 5]: 16.3
PIF Day 13 (palpation-induced flinches over 2 minutes) [1, 5]: 12.7*
PIF Day 15 (palpation-induced flinches over 2 minutes) [1, 5]: 11.7**
PIG Day 15 (palpation-induced guarding time over 2 minutes) [1, 5]: 9.1* sec
SF Day 15 (spontaneous flinches over 2 minutes) [1, 5]: 10*
SG Day 15 (spontaneous guarding time over 2 minutes) [1, 5]: 7.9 s
PIF Day 7 (palpation-induced flinches over 2 minutes) [1, 6]: 2.5
PIF Day 9 (palpation-induced flinches over 2 minutes) [1, 6]: 1.3
PIF Day 11 (palpation-induced flinches over 2 minutes) [1, 6]: 1.3
PIF Day 13 (palpation-induced flinches over 2 minutes) [1, 6]: 1.8
PIF Day 15 (palpation-induced flinches over 2 minutes) [1, 6]: 1.8
PIG Day 15 (palpation-induced guarding time over 2 minutes) [1, 6]: 0.9 s
SF Day 15 (spontaneous flinches over 2 minutes) [1, 6]: 1.3
SG Day 15 (spontaneous guarding time over 2 minutes) [1, 6]: 0.6 s
PIF Day 7 (palpation-induced flinches over 2 minutes) [1, 7]: 9.5
PIF Day 9 (palpation-induced flinches over 2 minutes) [1, 7]: 7.8**
PIF Day 11 (palpation-induced flinches over 2 minutes) [1, 7]: 8.5**
PIF Day 13 (palpation-induced flinches over 2 minutes) [1, 7]: 10.3**
PIF Day 15 (palpation-induced flinches over 2 minutes) [1, 7]: 9.3**
PIG Day 15 (palpation-induced guarding time over 2 minutes) [1, 7]: 6.4** sec
SF Day 15 (spontaneous flinches over 2 minutes) [1, 7]: 8.5**
SG Day 15 (spontaneous guarding time over 2 minutes) [1, 7]: 6.1** sec
palpation induced flinching reduced by ([1]; 120 mg/kg, Day 15): approximately 50%
Bone erosion score (visual, scale 0-5, microradiographs) ([2]; 60 mg/kg oral twice daily, NCTC 2472 tumor mice): 3.5
Macrophage Counts (CD68 positive cells) [2, 5]: 84** Counts per high powered field
Osteoclast Counts (TRACP positive cells) [2, 5]: 79** Counts per high powered field
Tumor area % marrow [2, 5]: 100%
Bone erosion score (visual, scale 0-5, microradiographs) ([2]; 120 mg/kg oral twice daily, NCTC 2472 tumor mice): 2.0**
Bone erosion score (visual, scale 0-5, microradiographs) ([2]; 120 mg/kg oral twice daily, sham (saline) mice): 0.25
Macrophage Counts (CD68 positive cells) [2, 6]: 28 Counts per high powered field
Osteoclast Counts (TRACP positive cells) [2, 6]: 41 Counts per high powered field
Macrophage Counts (CD68 positive cells) [2, 7]: 140* Counts per high powered field
Osteoclast Counts (TRACP positive cells) [2, 7]: 147 Counts per high powered field
Tumor area % marrow [2, 7]: 90%
growth factor-independent (serum-dependent) proliferation in culture (H460, MDA-MB-231, A375; 5 μM, monohydrochloride): did not inhibit
IC50 (H460, MDA-MB-231, A375; Homo sapiens, H460, MDA-MB-231, A375, no stimulus, determined once): > 5 µM
Mean final tumor weight, mg ([3]; 25 mg/kg oral twice daily (qd on weekends) from day 3, mean ± SEM): 1,257 ± 209 mg
Macrophage density, % area (F4/80 positive, 200X-field) [3, 8]: 4.3 ± 0.68 % area
Microvascular density, % area (CD31 positive) [3, 8]: 3.73 ± 0.81 % area
final tumor weights reduced by ([3]; 25 mg/kg oral): 21%
Mean final tumor weight, mg ([3]; 50 mg/kg oral twice daily (qd on weekends) from day 3, mean ± SEM): 1,070 ± 121 mg
Macrophage density, % area (F4/80 positive, 200X-field) [3, 9]: 2.6 ± 0.57 % area
Microvascular density, % area (CD31 positive) [3, 9]: 2.10 ± 0.57 % area
final tumor weights reduced by ([3]; 50 mg/kg oral): 32%
Mean final tumor weight ([3]; 100 mg/kg oral twice daily (qd on weekends) from day 3, mean ± SEM): 870 ± 94 mg
Macrophage density, % area (F4/80 positive, 200X-field) [3, 10]: 0.31 ± 0.14 % area
Microvascular density, % area (CD31 positive) [3, 10]: 1.25 ± 0.16 % area
final tumor weights reduced by ([3]; 100 mg/kg oral): 45%
reduction in tumor vascularity (vessel density) ([3]; highest dose (100 mg/kg)): 66%
Microradiograph score (five point visual score) [4, 11]: 0.75 ± 0.17
Osteoclast Counts (TRAP positive cells, mean of three 200x fields) [4, 11]: 3.7 ± 0.7
Tumor vol score (three point visual score) [4, 11]: 1.75 ± 0.48
tumor-associated osteoclasts reduced by ([4]; JNJ-141 20 or 60 mg/kg oral twice daily): greater than 95%
Microradiograph score (five point visual score) [4, 12]: 0.83 ± 0.18
Osteoclast Counts (TRAP positive cells, mean of three 200x fields) [4, 12]: 2.6 ± 1.5
Trabecular bone vol score (three point visual score) [4, 12]: 2.33 ± 0.23
Tumor vol score (three point visual score) [4, 12]: 1.50 ± 0.55

O=P(O)(O)C(O)(Cn1ccnc1)P(=O)(O)O [zoledronate, reference compound]
mechanical allodynia compared to tumor-inoculated animals (MRMT-1 cells; zoledronate treatment): decreased allodynia compared to tumor-inoculated animals but this effect did not reach statistical significance
full thickness cortical bone lesions ([4]; treated rats, day 17): not observed
tumor-associated osteoclasts reduced by ([4]; zoledronate 0.03 mg/kg QOD sc): 64%
Microradiograph score (five point visual score) ([4]; zoledronate 0.03 mpk QOD sc): 0.38 ± 0.20
Osteoclast Counts (TRAP positive cells, mean of three 200x fields) ([4]; zoledronate 0.03 mpk QOD sc): 21.0 ± 3.2
Trabecular bone vol score (three point visual score) ([4]; zoledronate 0.03 mpk QOD sc): 2.63 ± 0.20
Tumor vol score (three point visual score) ([4]; zoledronate 0.03 mpk QOD sc): 1.63 ± 0.20

CN1CC[C@]23c4c5ccc(O)c4O[C@H]2[C@@H](O)C=C[C@H]3[C@H]1C5 [morphine]
mechanical allodynia of affected animals (MRMT-1 cells; morphine, from the 2nd time point forward): reversed allodynia
